Experimental findings from PubChem BioAssay (NCI) are described below.

Test systems include HCT-15 colon; A549 NSCLC; OVCAR-3 ovarian; HCC-2998 colon; 786-0 renal; SW-620 colon; UO-31 renal; HL-60(TB) leukemia; ACHN renal; U251 CNS.
What all share (assay): inhibition of tumour cell growth, NCI panel, 48 h

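Interpolation was linear, between the two tested concentrations surrounding the appropriate level; five concentrations were tested over 48 hours in 96-well plates. The concentration for 50% growth inhibition is given as GI50. At the TGI there is no net growth.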

With `CCN1C(=O)N(CC)C2C1NN=c1s/c(=C3\C(=O)N(C)c4ccccc43)c(=O)n12` (stereo not given), the GI50 was 0.536 µM in the assay on HCT-15 colon; 1.83 µM in the assay with A549 NSCLC; 0.382 µM in the assay with OVCAR-3 ovarian; 1.8 µM in the assay with HCC-2998 colon; 1.94 µM in the assay with 786-0 renal; 0.58 µM in the assay with SW-620 colon. Also, the GI50 in the assay on UO-31 renal was 1.28 µM; in the assay with HL-60(TB) leukemia it was 0.434 µM; in the assay on ACHN renal, 0.752 µM; in the assay on U251 CNS, 1.97 µM. In addition, the TGI is greater than 100 µM with HCT-15 colon; greater than 100 µM in the assay on A549 NSCLC; 8.18 µM in the assay on OVCAR-3 ovarian; greater than 100 µM in the assay with HCC-2998 colon; greater than 100 µM in the assay on 786-0 renal; greater than 100 µM in the assay with SW-620 colon. In addition, the TGI in the assay on UO-31 renal was greater than 100 µM; in the assay with HL-60(TB) leukemia, 2.05 µM; in the assay on ACHN renal it was greater than 100 µM; in the assay on U251 CNS, greater than 68.9 µM.
As to `COc1ccccc1-c1c(C)nn2c(NCc3ccccn3)cc(C)nc12`, the GI50 with HCT-15 colon was 9.76 µM; in the assay on A549 NSCLC, 26.7 µM; in the assay on OVCAR-3 ovarian, 2.58 µM; with HCC-2998 colon it was greater than 50 µM; in the assay on 786-0 renal, 36.4 µM; with SW-620 colon, 14.9 µM. The GI50 with UO-31 renal is 10.2 µM; in the assay on HL-60(TB) leukemia it was 20.4 µM; in the assay with ACHN renal, 3.51 µM; in the assay on U251 CNS, greater than 41.9 µM. The TGI with HCT-15 colon, in the assay with A549 NSCLC, in the assay with OVCAR-3 ovarian, in the assay on HCC-2998 colon, with 786-0 renal and in the assay with SW-620 colon was greater than 50 µM throughout. Also, the TGI with UO-31 renal, in the assay with HL-60(TB) leukemia, in the assay on ACHN renal and in the assay with U251 CNS was greater than 50 µM each time.
In the case of `C=CCc1ccc(O)c(-c2cc(C3Oc4c(-c5cc(CC=C)ccc5O)cc(O)cc4[C@@H]3CO)ccc2O)c1` (stereo not given in full), the TGI with HCT-15 colon was 29.3 µM; with A549 NSCLC, greater than 100 µM; with OVCAR-3 ovarian it was 74.5 µM; with HCC-2998 colon, 68.7 µM; in the assay with 786-0 renal, greater than 100 µM; with SW-620 colon, 31.1 µM. The TGI is greater than 100 µM in the assay with UO-31 renal, 38.5 µM in the assay on HL-60(TB) leukemia, greater than 100 µM in the assay with ACHN renal and 68.7 µM with U251 CNS.
For `CCC1CN2CCc3cc(OC)c(OC)cc3C2CC1CC1c2cc(OC)c(OC)cc2CCN1C(=O)CNC(=O)OC(C)(C)C` (stereo not given), the TGI in the assay with HCT-15 colon came to 68.7 µM; with A549 NSCLC, 62.6 µM; in the assay with OVCAR-3 ovarian, 61.7 µM; in the assay on HCC-2998 colon, 12.3 µM; in the assay on 786-0 renal it was 21.2 µM; in the assay on SW-620 colon, 29.1 µM. Further, the TGI with UO-31 renal was 68.3 µM; with HL-60(TB) leukemia, 17.6 µM; with ACHN renal, 54.4 µM; in the assay on U251 CNS, greater than 100 µM.
On to `COC(=O)C(Cc1nc2ccc(Cl)cc2[nH]c1=O)C(=O)C(=O)Nc1ccccc1[N+](=O)[O-]` (stereo not given), for which the TGI with HCT-15 colon, in the assay on A549 NSCLC, in the assay with OVCAR-3 ovarian, with HCC-2998 colon, in the assay with 786-0 renal and with SW-620 colon was greater than 100 µM throughout. Moreover, the TGI with UO-31 renal, with HL-60(TB) leukemia, in the assay on ACHN renal and with U251 CNS was greater than 100 µM in each case.
For the compound `O=c1cccccc1NCCCCCCCCCNc1cccccc1=O`, the TGI in the assay with HCT-15 colon is 39.9 µM; with A549 NSCLC, greater than 100 µM; with OVCAR-3 ovarian, 37.5 µM; with HCC-2998 colon, 78.7 µM; in the assay on 786-0 renal, 88.9 µM; in the assay with SW-620 colon, 68.2 µM. Moreover, the TGI in the assay with UO-31 renal was found to be 41.6 µM; with HL-60(TB) leukemia, 24.5 µM; in the assay on ACHN renal it was 36.2 µM; with U251 CNS it was 30 µM.
With `CC(C)=CC(=O)CC(=O)C(=O)Nc1ccc(Cl)c(Cl)c1`, the TGI in the assay on HCT-15 colon, with A549 NSCLC, in the assay with OVCAR-3 ovarian, in the assay on HCC-2998 colon, in the assay on 786-0 renal and in the assay on SW-620 colon was greater than 100 µM throughout. Besides, the TGI in the assay with UO-31 renal, in the assay with HL-60(TB) leukemia, with ACHN renal and in the assay on U251 CNS was greater than 100 µM throughout.
Take `C=C[C@]1(C)C=C2C(=O)[C@@]3(O)OC[C@@]4(CCCC(C)(C)C43O)C2(O)C(O)C1` (stereo not given in full): the GI50 with HCT-15 colon is 3.04 µM; in the assay on A549 NSCLC it was 14.5 µM; in the assay with OVCAR-3 ovarian, 2.52 µM; in the assay with HCC-2998 colon, 17.2 µM; in the assay on 786-0 renal, 2.21 µM; in the assay with SW-620 colon it was 0.827 µM. Also, the GI50 with UO-31 renal is 1.34 µM; in the assay with HL-60(TB) leukemia it was 3.41 µM; in the assay on ACHN renal, 1.54 µM; in the assay with U251 CNS, 13.6 µM. The TGI in the assay on HCT-15 colon amounted to 9.21 µM; with A549 NSCLC, 30.8 µM; with OVCAR-3 ovarian, 5.9 µM; in the assay on HCC-2998 colon, 31.5 µM; with 786-0 renal it was 5.51 µM; with SW-620 colon, 2.31 µM. Further, the TGI in the assay with UO-31 renal came to 3 µM; in the assay on HL-60(TB) leukemia it was 13 µM; in the assay on ACHN renal, 3.1 µM; in the assay with U251 CNS, 28.1 µM.
For `CCOC(=O)/C(C#N)=C1\N[C@H](C(=O)OCC)CO1`, the TGI in the assay on HCT-15 colon, in the assay on A549 NSCLC, in the assay on OVCAR-3 ovarian, in the assay on HCC-2998 colon, with 786-0 renal and with SW-620 colon was greater than 100 µM each time. Moreover, the TGI in the assay with UO-31 renal, in the assay with HL-60(TB) leukemia, in the assay with ACHN renal and in the assay with U251 CNS was greater than 100 µM in each case.
With `COc1ccc2c(c1)C(=O)c1c-2n(CCCN2CCOCC2)c(=O)c2ccccc12`, the GI50 is 3.64 µM in the assay with HCT-15 colon; 1.97 µM in the assay on A549 NSCLC; 2.94 µM with OVCAR-3 ovarian; 3.08 µM in the assay with HCC-2998 colon; 2.38 µM with 786-0 renal; 2.31 µM in the assay on SW-620 colon. In addition, the GI50 in the assay on UO-31 renal is 0.799 µM; in the assay with HL-60(TB) leukemia, 4.59 µM; in the assay on ACHN renal, 1.69 µM; with U251 CNS, 2.01 µM. Also, the TGI in the assay with HCT-15 colon is greater than 100 µM; with A549 NSCLC it was 8.41 µM; with OVCAR-3 ovarian it was 12.2 µM; in the assay with HCC-2998 colon, 20.4 µM; in the assay with 786-0 renal, 9.46 µM; in the assay with SW-620 colon, greater than 100 µM. In addition, the TGI was 3.26 µM in the assay with UO-31 renal, greater than 100 µM with HL-60(TB) leukemia, 4.07 µM in the assay with ACHN renal and 11.6 µM in the assay on U251 CNS.
